According to PubChem BioAssay AID298 (DTP/NCI, 2004):
Where “and” joins values, the source holds several entries; their conditions need not be identical. Identical values can stand only once. Inconclusive results are not listed.

Test system: MX-1 breast xenograft, intrarenal, nude mice, tumor weight
Experiment: NCI In Vivo Anticancer Drug Screen. Data for tumor model Human Mammary Carcinoma MX-1 Xenograft (intrarenal inoculation) in NU/NU BALB/C (nude) mice
Conditions: endpoint: mean tumor weight change, higher = larger tumour
Protocol: The antitumor activity of compounds was measured in mice bearing transplantable tumors. Survival or tumor size were measured and the results are expressed as the measurement made in the treated group (T) divided by the measurement made in the vehicle treated control group (C). The tumor model used in this assay is Human Mammary Carcinoma MX-1 Xenograft (intrarenal inoculation) in NU/NU BALB/C (nude) mice

[1] = dose: 25.0 mg/kg/injection, schedule: Q01DX010 (sc), vehicle: saline with Tween-80
[2] = dose: 50.0 mg/kg/injection, schedule: Q01DX010 (sc), vehicle: saline with Tween-80
[3] = dose: 100.0 mg/kg/injection, schedule: Q01DX010 (sc), vehicle: saline with Tween-80
[4] = dose: 200.0 mg/kg/injection, schedule: Q04DX003 (sc), vehicle: Klucel (hydroxypropylcellulose) (HPC)
[5] = dose: 75.0 mg/kg/injection, schedule: Q04DX003 (ip), vehicle: saline with Tween-80
[6] = dose: 150.0 mg/kg/injection, schedule: Q04DX003 (ip), vehicle: saline
[7] = dose: 300.0 mg/kg/injection, schedule: Q04DX003 (ip), vehicle: saline
[8] = dose: 600.0 mg/kg/injection, schedule: Q04DX003 (ip), vehicle: saline

With Cc1nc(N)nc(N)c1N1CCN(c2ccc(C(=O)NC(C(=O)O)C(=O)O)cc2)CC1 the T/C (dose: 7.5 mg/kg/injection, schedule: Q04DX003 (ip), vehicle: Klucel + Tween-80) was 63 % of control, the T/C (dose: 15.0 mg/kg/injection, schedule: Q04DX003 (ip), vehicle: Klucel + Tween-80) was 76 % of control and the T/C (dose: 30.0 mg/kg/injection, schedule: Q04DX003 (ip), vehicle: Klucel + Tween-80) was 76 % of control. The T/C (dose: 60.0 mg/kg/injection, schedule: Q04DX003 (ip), vehicle: Klucel + Tween-80) was 82 % of control.
For CC1=CC(=Nc2ccc(N(CCCl)CCCl)cc2)C=C(C)C1=O, the T/C (dose: 300.0 mg/kg/injection, schedule: Q04DX003 (sc), vehicle: Klucel (hydroxypropylcellulose) (HPC)) was -11 % of control, the T/C (dose: 600.0 mg/kg/injection, schedule: Q04DX003 (sc), vehicle: Klucel (hydroxypropylcellulose) (HPC)) was -12 % of control and the T/C (dose: 1200.0 mg/kg/injection, schedule: Q04DX003 (sc), vehicle: Klucel (hydroxypropylcellulose) (HPC)) was 1 % of control. For the same molecule, the T/C (dose: 2400.0 mg/kg/injection, schedule: Q04DX003 (sc), vehicle: Klucel (hydroxypropylcellulose) (HPC)) was -20 % of control.
For COc1ccc(S(=O)(=O)N/N=C/C(=O)O)cc1, the T/C [1] was 79 % of control, the T/C [2] was 59 % of control and the T/C [3] was 8 % of control.
For CCN(CC)CCOCCO, the T/C (dose: 600.0 mg/kg/injection, schedule: Q04DX003 (sc), vehicle: saline) was 121 % of control.
CS(=O)(=O)OCCN(CCOS(C)(=O)=O)c1ccc(C=Nc2ccc(-c3csc(COc4ccccc4)n3)cc2)cc1 was tested, and the T/C (dose: 50.0 mg/kg/injection, schedule: Q01DX010 (sc), vehicle: Klucel (hydroxypropylcellulose) (HPC)) was 13 % of control, the T/C (dose: 100.0 mg/kg/injection, schedule: Q01DX010 (sc), vehicle: Klucel (hydroxypropylcellulose) (HPC)) was -6 % of control and the T/C (dose: 100.0 mg/kg/injection, schedule: Q04DX003 (ip), vehicle: Klucel (hydroxypropylcellulose) (HPC)) was 24 % of control. For the same molecule, the T/C (dose: 100.0 mg/kg/injection, schedule: Q04DX003 (sc), vehicle: Klucel (hydroxypropylcellulose) (HPC)) was 32 % of control, the T/C (dose: 200.0 mg/kg/injection, schedule: Q01DX010 (sc), vehicle: Klucel (hydroxypropylcellulose) (HPC)) was -61 % of control and the T/C (dose: 200.0 mg/kg/injection, schedule: Q04DX003 (ip), vehicle: Klucel (hydroxypropylcellulose) (HPC)) was 3 % of control. The T/C [4] was 18 % of control.
COC(=O)NC1C(C)OC(OC2C/C=C(/C)C3C=CC4C(OC5CC(OC6CC(O)C(OC7CC(O)C(OC)C(C)O7)C(C)O6)C(O)C(C)O5)C(C)CC(C)C4C3(C)/C(O)=C3\C(=O)OC4(CC(C)C(CO)=CC4/C=C\2C)C3=O)CC1(C)[N+](=O)[O-] (centres undefined) was tested, and the T/C (dose: 75.0 mg/kg/injection, schedule: Q04DX003 (ip), vehicle: Klucel (hydroxypropylcellulose) (HPC)) was 110 % of control and the T/C (dose: 150.0 mg/kg/injection, schedule: Q04DX003 (ip), vehicle: Klucel (hydroxypropylcellulose) (HPC)) was 108 % of control.
For CN1COc2c(n(C)c(=O)[nH]c2=O)C1, the T/C (dose: 100.0 mg/kg/injection, schedule: Q04DX003 (ip), vehicle: suspension in saline) was 85 % of control, the T/C (dose: 200.0 mg/kg/injection, schedule: Q04DX003 (ip), vehicle: saline) was 92 % of control and the T/C (dose: 200.0 mg/kg/injection, schedule: Q04DX003 (ip), vehicle: suspension in saline) was 65 % of control. For the same molecule, the T/C (dose: 400.0 mg/kg/injection, schedule: Q04DX003 (ip), vehicle: saline) was 103 % of control, the T/C (dose: 400.0 mg/kg/injection, schedule: Q04DX003 (ip), vehicle: suspension in saline) was 68 % of control and the T/C (dose: 800.0 mg/kg/injection, schedule: Q04DX003 (ip), vehicle: saline) was 102 % of control. The T/C (dose: 800.0 mg/kg/injection, schedule: Q04DX003 (ip), vehicle: suspension in saline) was 72 % of control.
CC1=C[P+](c2ccccc2)(c2ccccc2)C=C(c2ccccc2)O1 was tested, and the T/C (dose: 0.75 mg/kg/injection, schedule: Q04DX003 (ip), vehicle: saline) was 124 % of control.
COc1cc(O)c2c(O)c3c(c4c2c1[C@]1(C4)C(C)=CCCC1(C)C)[C@H](O)[C@@]1(O)CC(=O)C(C(N)=O)=C(O)[C@@]1(O)C3=O was tested, and the T/C [5] was 106 % of control.
For Cc1cnc(/C=N\NC(N)=S)c2cccc(N)c12, the T/C (dose: 125.0 mg/kg/injection, schedule: Q04DX003 (ip), vehicle: saline with Tween-80) was 31 % of control.
For CCCNC1=C(C)C(=O)C2=C(C1=O)[C@H](COC(N)=O)[C@]1(OC)[C@@H]3N[C@@H]3CN21, the T/C (dose: 3.0 mg/kg/injection, schedule: Q04DX003 (sc), vehicle: saline) was 13 % of control, the T/C (dose: 6.0 mg/kg/injection, schedule: Q04DX003 (sc), vehicle: saline) was -77 % of control and the T/C (dose: 12.0 mg/kg/injection, schedule: Q04DX003 (sc), vehicle: saline) was -100 % of control.
In the case of CC[C@@]1(O)C(=O)OCc2c1cc1n(c2=O)Cc2cc3c(N)cccc3nc2-1, the T/C (dose: 0.72 mg/kg/injection, schedule: Q04DX003 (ip), vehicle: saline with Tween-80) is reported as 6 % of control, the T/C (dose: 1.0 mg/kg/injection, schedule: Q04DX003 (ip), vehicle: saline with Tween-80) is reported as -97 % of control and the T/C (dose: 1.2 mg/kg/injection, schedule: Q04DX003 (ip), vehicle: saline with Tween-80) is reported as -30 % of control. The T/C (dose: 2.0 mg/kg/injection, schedule: Q04DX003 (ip), vehicle: saline with Tween-80) was -92 % of control and -100 % of control and the T/C (dose: 3.33 mg/kg/injection, schedule: Q04DX003 (ip), vehicle: saline with Tween-80) was -100 % of control.
For COc1cc(C(C)c2cc3c(cc2OCCO)OCO3)cc(OC)c1OC (centres undefined), the T/C [6] was 69 % of control, the T/C [7] was 65 % of control and the T/C [8] was 21 % of control.
For CCC(C(=O)O)C(=O)O.[NH2-].[NH2-].[Pt+2], the T/C (dose: 37.5 mg/kg/injection, schedule: Q04DX003 (sc), vehicle: saline) was -27 % of control, the T/C (dose: 37.5 mg/kg/injection, schedule: Q04DX003 (sc), vehicle: suspension in saline) was -100 % of control and the T/C (dose: 75.0 mg/kg/injection, schedule: Q04DX003 (sc), vehicle: saline) was -100 % of control. For the same molecule, the T/C (dose: 75.0 mg/kg/injection, schedule: Q04DX003 (sc), vehicle: suspension in saline) was -100 % of control, the T/C (dose: 150.0 mg/kg/injection, schedule: Q04DX003 (sc), vehicle: saline) was -100 % of control and the T/C (dose: 150.0 mg/kg/injection, schedule: Q04DX003 (sc), vehicle: suspension in saline) was -100 % of control.
In the case of CC(=O)OCC1OC(n2cc(CBr)nn2)C(OC(C)=O)C(OC(C)=O)C1OC(C)=O (centres undefined), the T/C [1] is reported as 92 % of control, the T/C [2] is reported as 94 % of control and the T/C [3] is reported as 95 % of control. For the same molecule, the T/C (dose: 200.0 mg/kg/injection, schedule: Q01DX010 (sc), vehicle: saline with Tween-80) was 87 % of control.
For O=CC(O)C(O)C(O)C(O)CO (centres undefined), the T/C (dose: 75.0 mg/kg/injection, schedule: Q04DX003 (ip), vehicle: saline) was 72 % of control, the T/C [6] was 113 % of control and the T/C [7] was 65 % of control. The T/C [8] was 93 % of control and the T/C (dose: 1200.0 mg/kg/injection, schedule: Q04DX003 (ip), vehicle: saline) was 59 % of control.
With CCCCCCCCCCCCN1C(C)=CS/C1=C\C=C\c1scc(C)[n+]1CCCCCCCCCCCC the T/C (dose: 0.75 mg/kg/injection, schedule: Q04DX003 (ip), vehicle: saline with Tween-80) was 91 % of control, the T/C (dose: 1.5 mg/kg/injection, schedule: Q04DX003 (ip), vehicle: saline with Tween-80) was 89 % of control and the T/C (dose: 3.0 mg/kg/injection, schedule: Q04DX003 (ip), vehicle: saline with Tween-80) was 28 % of control.
O=C1NC(=O)NC(C(=O)O)N1 was tested, and the T/C [4] was 96 % of control and the T/C (dose: 400.0 mg/kg/injection, schedule: Q04DX003 (sc), vehicle: Klucel (hydroxypropylcellulose) (HPC)) was 108 % of control.
O=C(Nc1ccccc1)c1c(O)[nH]c(=S)[nH]c1=O was tested, and the T/C (dose: 50.0 mg/kg/injection, schedule: Q04DX003 (ip), vehicle: saline with Tween-80) was 85 % of control, the T/C [5] was 98 % of control and the T/C (dose: 100.0 mg/kg/injection, schedule: Q04DX003 (ip), vehicle: saline with Tween-80) was 108 % of control.
NCCCNCCCCNC(=O)C(O)NC(=O)CC(O)CCCCN=C(N)N (centres undefined) was tested, and the T/C (dose: 12.5 mg/kg/injection, schedule: Q04DX003 (ip), vehicle: saline) was 100 % of control, the T/C (dose: 25.0 mg/kg/injection, schedule: Q04DX003 (ip), vehicle: saline) was 93 % of control and the T/C (dose: 50.0 mg/kg/injection, schedule: Q04DX003 (ip), vehicle: saline) was 29 % of control and 44 % of control. For the same molecule, the T/C (dose: 100.0 mg/kg/injection, schedule: Q04DX003 (ip), vehicle: saline) was 53 % of control and 56 % of control.
